Measured values reported in article PMC12818446 (ACS chemical biology, 2025).
Values after ≈ are worked out from the molar mass of the structure shown. Values joined by “and” are separate entries in the source; they are usually repeats but may differ in a detail not shown here. Equal values may be shown once. Read-outs that look alike come from different tables or passages of the source.

Columns and labels:
[1] = system: E. coli ATCC25922; test: MIC, visible growth in 96-well plates; format: cell-based, Escherichia coli
[2] = target: T1, ecLeuRS (Escherichia coli, UniProt P07813); conditions: cited from earlier work
[3] = target: T1, ecLeuRS; test: SPR single-cycle kinetics, BAP-ecLeuRS in the presence of AMP; format: binding; conditions: for Kd/IC50: ratio of SPR Kd (AMP) and IC50 after 1 h preincubation; for kon: read-out: SPR kon
[4] = system: M. tuberculosis H37Rv; test: MIC, microplate Alamar blue assay; format: cell-based; conditions: Mycobacterium tuberculosis
[5] = system: M. tuberculosis H37Rv_LuxABCDE; test: Post-antibiotic effect, autobioluminescent strain; format: cell-based, Mycobacterium tuberculosis
[6] = system: M. tuberculosis; conditions: cited from earlier work
[7] = system: human cytoplasmic LeuRS; conditions: read-out: reported IC50; cited from earlier work
[8] = target: T2, mtLeuRS (Mycobacterium tuberculosis, UniProt P9WFV1); format: binding
[9] = system: human mitochondrial LeuRS; conditions: read-out: reported IC50; cited from earlier work
[10] = system: E. coli ΔtolC and ΔacrAB; format: cell-based, Escherichia coli
[11] = system: E. coli ATCC25922; test: Checkerboard MIC assay and FIC index; format: cell-based, Escherichia coli; conditions: for MIC: Escherichia coli
[12] = target: T3, ecLeuRS D342E (Escherichia coli, UniProt P07813, D342E); test: biochemical; format: binding
[13] = target: T2, mtLeuRS; conditions: mtLeuRS in the presence of AMP; cited from earlier work
[14] = system: E. coli ATCC25922; test: Time-kill assay; format: cell-based, Escherichia coli; conditions: combination of ganfeborole and Nva, M9 medium
[15] = target: T2, mtLeuRS; test: biochemical; conditions: IC50, 1 h preincubation, 1 h preincubation with enzyme and mttRNA^Leu
[16] = system: E. coli mutant strains (ecLeuRS D342E, G333D, D345N, V335D); test: microbe, parasite or virus in culture; format: cell-based, Escherichia coli
[17] = target: T3, ecLeuRS D342E; test: biochemical; format: biochemical
[18] = target: T1, ecLeuRS; test: LeuRS aminoacylation-activity assay; format: biochemical; conditions: IC50, 1 h preincubation, 1 h preincubation with enzyme and ectRNA^Leu
[19] = 1xMIC exposure for 2.5 h, 10,000-fold dilution
[20] = 10xMIC exposure for 2.5 h, 10,000-fold dilution
[21] = 30xMIC exposure for 2.5 h, 10,000-fold dilution
[22] = 50xMIC exposure for 2.5 h, 10,000-fold dilution

T1 sequence (P07813 whole entry): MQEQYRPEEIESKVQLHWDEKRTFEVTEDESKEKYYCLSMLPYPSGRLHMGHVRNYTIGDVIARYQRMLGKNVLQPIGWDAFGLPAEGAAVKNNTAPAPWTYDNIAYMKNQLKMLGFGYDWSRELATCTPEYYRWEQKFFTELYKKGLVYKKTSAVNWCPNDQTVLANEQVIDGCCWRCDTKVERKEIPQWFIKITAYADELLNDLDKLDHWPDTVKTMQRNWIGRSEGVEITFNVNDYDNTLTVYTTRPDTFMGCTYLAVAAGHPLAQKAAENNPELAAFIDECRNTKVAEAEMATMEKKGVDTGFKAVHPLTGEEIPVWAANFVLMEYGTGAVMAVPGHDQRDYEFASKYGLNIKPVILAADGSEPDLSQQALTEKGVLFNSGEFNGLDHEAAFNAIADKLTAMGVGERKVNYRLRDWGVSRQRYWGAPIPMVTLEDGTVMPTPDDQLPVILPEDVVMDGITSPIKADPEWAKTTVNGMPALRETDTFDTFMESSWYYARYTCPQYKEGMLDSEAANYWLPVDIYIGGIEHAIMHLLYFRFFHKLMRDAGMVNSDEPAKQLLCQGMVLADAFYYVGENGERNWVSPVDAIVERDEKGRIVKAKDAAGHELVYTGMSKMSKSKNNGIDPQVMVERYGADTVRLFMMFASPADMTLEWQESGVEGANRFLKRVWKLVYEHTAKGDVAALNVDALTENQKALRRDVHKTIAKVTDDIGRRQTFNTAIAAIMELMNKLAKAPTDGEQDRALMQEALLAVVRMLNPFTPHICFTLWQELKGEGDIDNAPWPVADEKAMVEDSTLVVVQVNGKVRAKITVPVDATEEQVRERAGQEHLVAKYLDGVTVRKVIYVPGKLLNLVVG
T2 sequence (P9WFV1 whole entry): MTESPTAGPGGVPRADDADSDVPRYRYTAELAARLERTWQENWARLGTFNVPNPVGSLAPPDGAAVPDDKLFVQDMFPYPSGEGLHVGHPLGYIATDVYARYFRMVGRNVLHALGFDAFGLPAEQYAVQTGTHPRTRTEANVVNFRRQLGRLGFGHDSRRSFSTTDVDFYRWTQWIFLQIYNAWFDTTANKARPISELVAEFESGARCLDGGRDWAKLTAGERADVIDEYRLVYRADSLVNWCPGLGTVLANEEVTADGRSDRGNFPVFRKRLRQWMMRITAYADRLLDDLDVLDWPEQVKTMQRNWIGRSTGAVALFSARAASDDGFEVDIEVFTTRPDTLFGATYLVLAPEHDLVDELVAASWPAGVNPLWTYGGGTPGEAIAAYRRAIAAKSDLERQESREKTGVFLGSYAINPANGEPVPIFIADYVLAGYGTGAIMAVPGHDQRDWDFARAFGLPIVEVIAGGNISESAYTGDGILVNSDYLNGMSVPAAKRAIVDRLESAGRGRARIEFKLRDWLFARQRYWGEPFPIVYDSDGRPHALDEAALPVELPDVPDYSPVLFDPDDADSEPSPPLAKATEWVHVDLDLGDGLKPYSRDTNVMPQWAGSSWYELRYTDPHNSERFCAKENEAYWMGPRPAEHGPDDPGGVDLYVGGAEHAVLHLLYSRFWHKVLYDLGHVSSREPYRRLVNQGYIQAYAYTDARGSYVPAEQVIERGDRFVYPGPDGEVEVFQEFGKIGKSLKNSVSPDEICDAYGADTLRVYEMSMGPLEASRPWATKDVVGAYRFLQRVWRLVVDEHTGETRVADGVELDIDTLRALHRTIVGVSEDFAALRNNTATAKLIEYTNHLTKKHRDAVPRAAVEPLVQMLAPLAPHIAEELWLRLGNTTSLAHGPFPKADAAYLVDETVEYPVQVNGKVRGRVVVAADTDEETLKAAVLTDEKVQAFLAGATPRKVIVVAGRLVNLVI
T3 sequence (P07813 whole entry D342E): as the sequence (P07813 whole entry) above, with D342E counted along it

**Q.** For NC[C@H]1OB(O)c2c(OCCCO)cccc21 [Epetraborole], which MIC ([1]; Escherichia coli, ATCC25922) is on record?
**A.** 1.56 µM (≈ 0.37 µg/mL)

**Q.** And the residence time ([2]; ecLeuRS with tRNA^Leu)?
**A.** 23 h

**Q.** And the Kd [3]?
**A.** 1100 ± 71 nM

**Q.** And the Kd/IC50 ([3]; ecLeuRS)?
**A.** 367

**Q.** What about the kon [3] of the same molecule?
**A.** 62000 ± 33000 M⁻¹ s⁻¹

**Q.** For NNC(=O)c1ccncc1 [Isoniazid], which MIC [4] is on record?
**A.** 0.23 µM (≈ 0.0315 µg/mL)

**Q.** What about the “PAE at any concentration” value ([5]; 1x to 50xMIC) of the same molecule?
**A.** no detectable PAE

**Q.** What about the “PAE 1xMIC” value [5, 19] of the same molecule?
**A.** 0 h

**Q.** What about the “PAE 10xMIC” value [5, 20] of the same molecule?
**A.** 0 h

**Q.** And the “PAE 30xMIC” value [5, 21]?
**A.** 0 h

**Q.** What about the “PAE 50xMIC” value [5, 22] of the same molecule?
**A.** 0 h

**Q.** With CO[C@H]1/C=C/O[C@@]2(C)Oc3c(C)c(O)c4c(O)c(c(/C=N/N5CCN(C)CC5)c(O)c4c3C2=O)NC(=O)/C(C)=C\C=C\[C@H](C)[C@H](O)[C@@H](C)[C@@H](O)[C@@H](C)[C@H](OC(C)=O)[C@@H]1C [Rifampicin] as the molecule, how does the MIC [4] read?
**A.** 0.04 µM (≈ 0.0329 µg/mL)

**Q.** And the PAE [6]?
**A.** 68 to 77 h

**Q.** And the “PAE 1xMIC” value [5]?
**A.** 22 ± 1 h

**Q.** And the “PAE 10xMIC” value [5]?
**A.** 30 ± 2 h

**Q.** And the “PAE 30xMIC” value [5]?
**A.** 36 ± 3 h

**Q.** What about the “PAE 50xMIC” value [5] of the same molecule?
**A.** 72 h and 72 ± 4 h

**Q.** For NC[C@H]1OB(O)c2c(OCCO)ccc(Cl)c21 [Ganfeborole, (S)-3-(Aminomethyl)-4-chloro-7-(2-hydroxyethoxy)benzo[c][1,2]oxaborol-1(3H)-ol], which IC50 [7] is on record?
**A.** 132000 nM

**Q.** What about the MIC ([1]; E. coli wild-type, Table 4 (CAMH medium)) of the same molecule?
**A.** >1000 µM

**Q.** What about the MIC ([1]; Escherichia coli, ATCC25922) of the same molecule?
**A.** > 1000 µM

**Q.** What about the “antibacterial activity towards E. coli, no activity up to” value ([1]; wild-type E. coli) of the same molecule?
**A.** > 1 mM

**Q.** What about the MIC [4] of the same molecule?
**A.** 0.058 µM (≈ 0.0149 µg/mL)

**Q.** What about the “fold more potent binding than compound 1” value ([8]; SPR with AMP) of the same molecule?
**A.** ~ 50 fold

**Q.** And the Kd/IC50 ([8]; ratio of SPR Kd (AMP) and IC50 after 1 h preincubation)?
**A.** 7

**Q.** And the IC50 [9]?
**A.** > 300000 nM

**Q.** And the “MIC / antibacterial activity in efflux pump mutant strains” value [10]?
**A.** no antibacterial activity

**Q.** And the “antibacterial activity, no activity up to” value [10]?
**A.** > 1 mM

**Q.** What about the “fold decrease in the MIC of ganfeborole on addition of Nva” value ([11]; E. coli, 12.5 μM Nva) of the same molecule?
**A.** > 1000 fold

**Q.** And the MIC ([11]; ATCC25922, read-out: MIC of ganfeborole + 12.5 μM Nva, E. coli ATCC25922, M9 media, + 12.5 μM Nva)?
**A.** 0.4 µM

**Q.** What about the MIC ([11]; ATCC25922, read-out: MIC of ganfeborole + 100 μM Nva + 100 μM Leu, E. coli ATCC25922, M9 media, + 100 μM Nva + 100 μM Leu) of the same molecule?
**A.** 1600 µM

**Q.** What about the FICI ([11]; checkerboard of Nva and ganfeborole, E. coli ATCC25922) of the same molecule?
**A.** < 0.5

**Q.** And the Kd [12]?
**A.** 1700 ± 197 nM

**Q.** What about the Kd/IC50 [12] of the same molecule?
**A.** 85

**Q.** And the koff ([12]; read-out: SPR koff)?
**A.** 0.07 ± 0.0071 s⁻¹

**Q.** What about the kon ([12]; read-out: SPR kon) of the same molecule?
**A.** 42000 ± 1000 M⁻¹ s⁻¹

**Q.** And the residence time ([12]; read-out: SPR tR (residence time))?
**A.** 0.24 ± 0.02 min

**Q.** What about the “PAE 1xMIC” value [5, 19] of the same molecule?
**A.** 0 h

**Q.** And the “PAE 10xMIC” value [5, 20]?
**A.** 32 ± 2 h

**Q.** And the “PAE 30xMIC” value [5, 21]?
**A.** 39 ± 2 h

**Q.** What about the “PAE 50xMIC” value [5, 22] of the same molecule?
**A.** 77 ± 4 h

**Q.** And the “PAE 50xMIC” value ([5]; 50xMIC exposure for 2.5 h, 10,000-fold dilution, listed as ganfeborole)?
**A.** 77 h

**Q.** What about the Kd [13] of the same molecule?
**A.** 10.4 nM

**Q.** And the time-kill result [14]?
**A.** cidality

**Q.** And the IC50 [15]?
**A.** 1 ± 0.1 nM

**Q.** And the MIC [16]?
**A.** 1.56 µM (≈ 0.402 µg/mL)

**Q.** What about the MIC ([16]; Escherichia coli, read-out: MIC, four mutant strains together) of the same molecule?
**A.** 1.56 to 6.25 µM (≈ 0.402 to 1.61 µg/mL)

**Q.** What about the “fold increase in IC50, D342E mutant versus ecLeuRS” value [17] of the same molecule?
**A.** 10 fold

**Q.** What about the IC50 ([17]; IC50, 2 min preincubation) of the same molecule?
**A.** 278 ± 19 nM

**Q.** And the IC50 ([17]; IC50, 20 min preincubation)?
**A.** 60 ± 4 nM

**Q.** And the IC50 ([17]; IC50, 1 h preincubation)?
**A.** 20 ± 2 nM

**Q.** What about the Kd [3] of the same molecule?
**A.** 17 ± 1 nM

**Q.** And the “fold more potent binding than compound 1” value ([3]; ecLeuRS, SPR with AMP)?
**A.** 30-40 fold

**Q.** What about the “SPR tR (residence time)” value ([3]; ecLeuRS, in the presence of AMP) of the same molecule?
**A.** 104 ± 5 min

**Q.** And the Kd/IC50 ([3]; ecLeuRS)?
**A.** 8.5

**Q.** What about the koff ([3]; read-out: SPR koff) of the same molecule?
**A.** 0.00016 ± 1e-05 s⁻¹

**Q.** What about the kon [3] of the same molecule?
**A.** 9500 ± 500 M⁻¹ s⁻¹

**Q.** What about the residence time ([3]; read-out: SPR tR (residence time), ecLeuRS, in the presence of AMP) of the same molecule?
**A.** 100 min

**Q.** What about the IC50 [18] of the same molecule?
**A.** 2 ± 0.1 nM

**Q.** With CCC[C@H](N)C(=O)O [Nva, L-Norvaline] as the molecule, how does the “effect on bacterial growth, no effect up to” value ([1]; Nva alone, E. coli) read?
**A.** > 200 µM

**Q.** And the MIC ([11]; ATCC25922, read-out: MIC of Nva with 6.4 μM ganfeborole, E. coli ATCC25922, in the presence of 3.1 μM Leu)?
**A.** 25 µM

**Q.** What about the MIC ([11]; ATCC25922, read-out: MIC of Nva with 6.4 μM ganfeborole, E. coli ATCC25922, with 200 μM Leu) of the same molecule?
**A.** 1600 µM

**Q.** With NCC1OB(O)c2c(OCCCO)cccc21 (centres unmarked) [AN3213] as the molecule, how does the reported residence time ([2]; ecLeuRS and tRNA^Leu) read?
**A.** 23 h
